Key:
[1] = test system: Candida albicans; assay: Antifungal activity against Candida albicans ATCC 44859 after 48 hrs by microdilution method; assay type: functional; conditions: ATCC 44859, 48 h
[2] = test system: Candida albicans; assay: Antifungal activity against Candida albicans ATCC 90028 after 24 hrs by microdilution method; assay type: functional; conditions: ATCC 90028, 24 h
[3] = test system: Candida albicans; assay: Antifungal activity against Candida albicans ATCC 90028 after 48 hrs by microdilution method; assay type: functional; conditions: ATCC 90028, 48 h
[4] = test system: Candida parapsilosis; assay: Antifungal activity against Candida parapsilosis ATCC 22019 after 24 hrs by microdilution method; assay type: functional; conditions: Lodderomyces parapsilosis, ATCC 22019, 24 h
[5] = test system: Candida parapsilosis; assay: Antifungal activity against Candida parapsilosis ATCC 22019 after 48 hrs by microdilution method; assay type: functional; conditions: Lodderomyces parapsilosis, ATCC 22019, 48 h
[6] = test system: Pichia kudriavzevii; assay: Antifungal activity against Candida krusei ATCC 6258 after 24 hrs by microdilution method; assay type: functional; conditions: ATCC 6258, 24 h
[7] = test system: Pichia kudriavzevii; assay: Antifungal activity against Candida krusei ATCC 6258 after 48 hrs by microdilution method; assay type: functional; conditions: ATCC 6258, 48 h
[8] = test system: Pichia kudriavzevii; assay: Antifungal activity against Candida krusei E28 after 24 hrs by microdilution method; assay type: functional; conditions: E28, 24 h
[9] = test system: Pichia kudriavzevii; assay: Antifungal activity against Candida krusei E28 after 48 hrs by microdilution method; assay type: functional; conditions: E28, 48 h
[10] = test system: Candida tropicalis; assay: Antifungal activity against Candida tropicalis 156 after 24 hrs by microdilution method; assay type: functional; conditions: Candida tropicalis, 156, 24 h
[11] = test system: Candida tropicalis; assay: Antifungal activity against Candida tropicalis 156 after 48 hrs by microdilution method; assay type: functional; conditions: Candida tropicalis, 156, 48 h
[12] = test system: Nakaseomyces glabratus; assay: Antifungal activity against Candida glabrata 20/I after 24 hrs by microdilution method; assay type: functional
[13] = test system: Nakaseomyces glabratus; assay: Antifungal activity against Candida glabrata 20/I after 48 hrs by microdilution method; assay type: functional
[14] = test system: Clavispora lusitaniae; assay: Antifungal activity against Candida lusitaniae 2446/I after 24 hrs by microdilution method; assay type: functional
[15] = test system: Clavispora lusitaniae; assay: Antifungal activity against Candida lusitaniae 2446/I after 48 hrs by microdilution method; assay type: functional
[16] = test system: Trichosporon asahii; assay: Antifungal activity against Trichosporon asahii 1188 after 24 hrs by microdilution method; assay type: functional; conditions: Trichosporon asahii, 1188, 24 h
[17] = test system: Trichosporon asahii; assay: Antifungal activity against Trichosporon asahii 1188 after 48 hrs by microdilution method; assay type: functional; conditions: Trichosporon asahii, 1188, 48 h
[18] = test system: Aspergillus fumigatus; assay: Antifungal activity against Aspergillus fumigatus 231 after 24 hrs by microdilution method; assay type: functional, organism-based; conditions: Aspergillus fumigatus, 231, 24 h
[19] = test system: Aspergillus fumigatus; assay: Antifungal activity against Aspergillus fumigatus 231 after 48 hrs by microdilution method; assay type: functional, organism-based; conditions: Aspergillus fumigatus, 231, 48 h
[20] = test system: Lichtheimia corymbifera; assay: Antifungal activity against Absidia corymbifera 272 after 24 hrs by microdilution method; assay type: functional, organism-based; conditions: Lichtheimia corymbifera, 272, 24 h
[21] = test system: Lichtheimia corymbifera; assay: Antifungal activity against Absidia corymbifera 272 after 48 hrs by microdilution method; assay type: functional, organism-based; conditions: Lichtheimia corymbifera, 272, 48 h
[22] = test system: Candida albicans; assay: Antifungal activity against Candida albicans ATCC 44859 after 24 hrs by microdilution method; assay type: functional; conditions: ATCC 44859, 24 h
[23] = test system: Trichophyton mentagrophytes; assay: Antifungal activity against Trichophyton mentagrophytes 445 after 72 hrs by microdilution method; assay type: functional, organism-based; conditions: Trichophyton mentagrophytes, 445, 72 h
[24] = test system: Trichophyton mentagrophytes; assay: Antifungal activity against Trichophyton mentagrophytes 445 after 120 hrs by microdilution method; assay type: functional, organism-based; conditions: Trichophyton mentagrophytes, 445, 120 h
[25] = test system: L1210; assay: Cytostatic activity against mouse L1210 cells at 10 umol/L after 72 hrs by XTT assay; assay type: ADME, cell-based; conditions: l1210, 72 h, 10 µM
[26] = test system: HL-60; assay: Cytostatic activity against human HL60 cells at 10 umol/L after 72 hrs by XTT assay; assay type: ADME, cell-based; conditions: hl-60, 72 h, 10 µM
[27] = Cytostatic activity against human HeLaS3 cells at 10 umol/L after 48 hrs by XTT assay; assay type: ADME, cell-based; conditions: hela s3, 48 h, 10 µM
[28] = test system: CCRF-CEM; assay: Cytostatic activity against human CCRF-CEM cells at 10 umol/L after 72 hrs by XTT assay; assay type: ADME, cell-based; conditions: 10 µM
[29] = test system: HT-29; assay: Cytostatic activity against human HT-29 cells at 10 umol/L after 72 hrs by XTT assay; assay type: ADME, cell-based; conditions: ht-29, 72 h, 10 µM
[30] = Cytostatic activity against human COLO201 cells at 10 umol/L after 72 hrs by XTT assay; assay type: ADME, cell-based; conditions: colo 201, 72 h, 10 µM
[31] = Cytostatic activity against human HeLaS3 cells after 48 hrs by XTT assay; assay type: ADME, cell-based; conditions: HeLa S3, 48 h
[32] = test system: CCRF-CEM; assay: Cytostatic activity against human CCRF-CEM cells after 72 hrs by XTT assay; assay type: ADME, cell-based
[33] = test system: L1210; assay: Cytostatic activity against mouse L1210 cells after 72 hrs by XTT assay; assay type: ADME, cell-based; conditions: L1210, 72 h
[34] = test system: HL-60; assay: Cytostatic activity against human HL60 cells after 72 hrs by XTT assay; assay type: ADME, cell-based; conditions: HL-60, 72 h
[35] = Cytostatic activity against human COLO201 cells after 72 hrs by XTT assay; assay type: ADME, cell-based; conditions: COLO 201, 72 h

| IC50 [24] | Compound | IC80 [1] | IC80 [2] | IC80 [3] | IC80 [4] | IC80 [5] | IC80 [8] | IC80 [9] | IC80 [10] | IC80 [11] | IC80 [12] | IC80 [13] | IC80 [16] | IC80 [17] | IC80 [18] | IC80 [19] | IC80 [20] | IC80 [21] | IC80 [22] | IC80 [23] | other results |
| --- | --- | --- | --- | --- | --- | --- | --- | --- | --- | --- | --- | --- | --- | --- | --- | --- | --- | --- | --- | --- | --- |
| 250 µM | O=C1C=CC(=O)C1=C/C=C/c1ccc(Cl)cc1 | 62.5 µM | 62.5 µM | 62.5 µM | 62.5 µM | 62.5 µM | 62.5 µM | 62.5 µM | 62.5 µM | 62.5 µM | 62.5 µM | 62.5 µM | 62.5 µM | 125 µM | 62.5 µM | 125 µM | > 250 µM | > 250 µM | 62.5 µM | 62.5 µM | IC80 [6]: 62.5 µM; IC80 [7]: 62.5 µM; IC80 [14]: 62.5 µM; IC80 [15]: 62.5 µM; Activity [25]: Non-toxic; Activity [26]: Non-toxic; Activity [27]: Non-toxic; Activity [28]: Non-toxic; Activity [29]: Non-toxic; Activity [30]: Non-toxic |
| 500 µM | COc1ccc(/C=C/C=C2C(=O)C=CC2=O)cc1 | 250 µM | 250 µM | 250 µM | 250 µM | 250 µM | 250 µM | 250 µM | 250 µM | 250 µM | 250 µM | 250 µM | 250 µM | 500 µM | 250 µM | 250 µM | > 500 µM | > 500 µM | 125 µM | 250 µM | IC80 [6]: 250 µM; IC80 [7]: 250 µM; IC80 [14]: 250 µM; IC80 [15]: 250 µM; Activity [25]: Non-toxic; Activity [26]: Non-toxic; Activity [27]: Non-toxic; Activity [28]: Non-toxic; Activity [29]: Non-toxic; Activity [30]: Non-toxic |
| 7.81 µM | O=C1C=CC(=O)C1=Cc1ccco1 | 15.6 µM | 15.6 µM | 15.6 µM | 15.6 µM | 15.6 µM | 15.6 µM | 15.6 µM | 15.6 µM | 15.6 µM | 15.6 µM | 15.6 µM | 15.6 µM | 31.2 µM | 15.6 µM | 31.2 µM | 250 µM | > 500 µM | 7.81 µM | 7.81 µM | IC80 [6]: 7.81 µM; IC80 [7]: 15.6 µM; IC80 [14]: 15.6 µM; IC80 [15]: 15.6 µM; Activity [25]: Non-toxic; Activity [26]: Non-toxic; IC50 [31]: 7.3 µM; IC50 [32]: 2.5 µM; Activity [29]: Non-toxic; Activity [30]: Non-toxic |
| > 125 µM | Cc1ccc(/C=C/C=C2C(=O)C=CC2=O)cc1 | 7.81 µM | 7.81 µM | 7.81 µM | 7.81 µM | 31.2 µM | 7.81 µM | 15.6 µM | 7.81 µM | 7.81 µM | 31.2 µM | 31.2 µM | 31.2 µM | > 125 µM | 62.5 µM | > 125 µM | > 125 µM | > 125 µM | 3.9 µM | 125 µM | IC80 [6]: 7.81 µM; IC80 [7]: 15.6 µM; IC80 [14]: 7.81 µM; IC80 [15]: 15.6 µM; Activity [25]: Non-toxic; Activity [26]: Non-toxic; IC50 [31]: 7.3 µM; Activity [28]: Non-toxic; Activity [29]: Non-toxic; Activity [30]: Non-toxic |
| 7.81 µM | COC(/C=C/c1ccccc1)=C1\C(=O)C=C(C)C1=O [CORUSCANONE A] | 3.91 µM |  |  |  |  | 125 µM | 250 µM | 3.91 µM | 7.1 µM | 125 µM | 125 µM | 0.98 µM | 7.81 µM | 31.2 µM | 250 µM | 31.2 µM | 250 µM | 0.98 µM | 3.91 µM | IC50 [33]: 3.8 µM; IC50 [34]: 4.5 µM; IC50 [32]: 3.6 µM |
| 15.6 µM | O=C1C=CC(=O)C1=Cc1ccc(Br)cc1 | 15.6 µM | 15.6 µM | 15.6 µM | 15.6 µM | 15.6 µM | 15.6 µM | 15.6 µM | 15.6 µM | 15.6 µM | 15.6 µM | 15.6 µM | 15.6 µM | 15.6 µM | 31.2 µM | 31.2 µM | > 125 µM | > 125 µM | 7.81 µM | 15.6 µM | IC80 [6]: 15.6 µM; IC80 [7]: 15.6 µM; IC80 [14]: 15.6 µM; IC80 [15]: 15.6 µM; Activity [25]: Non-toxic; Activity [26]: Non-toxic; IC50 [31]: 4.9 µM; IC50 [32]: 1.8 µM; Activity [29]: Non-toxic; Activity [30]: Non-toxic |
| 0.98 µM | CN(C)c1ccc(C=C2C(=O)C=CC2=O)cc1 | 31.2 µM | 31.2 µM | 62.5 µM | 3.9 µM | 7.81 µM | 7.81 µM | 7.81 µM | 62.5 µM | > 125 µM | 62.5 µM | > 125 µM | 7.81 µM | 15.6 µM | 15.6 µM | 31.2 µM | > 125 µM | > 125 µM | 31.2 µM | 0.98 µM | IC80 [6]: 7.81 µM; IC80 [7]: 7.81 µM; IC80 [14]: 7.81 µM; IC80 [15]: 31.2 µM; Activity [25]: Non-toxic; Activity [26]: Non-toxic; Activity [27]: Non-toxic; IC50 [32]: 4.3 µM; Activity [29]: Non-toxic; IC50 [35]: 1.3 µM |
| 15.6 µM | O=C1C=CC(=O)C1=Cc1ccc2ccccc2c1 | 15.6 µM | 15.6 µM | 15.6 µM | 15.6 µM | 15.6 µM | 31.2 µM | 31.2 µM | 31.2 µM | 31.2 µM | 31.2 µM | 31.2 µM | 15.6 µM | 62.5 µM | 15.6 µM | 31.2 µM | 125 µM | > 125 µM | 15.6 µM | 7.81 µM | IC80 [6]: 15.6 µM; IC80 [7]: 31.2 µM; IC80 [14]: 15.6 µM; IC80 [15]: 15.6 µM; Activity [25]: Non-toxic; Activity [26]: Non-toxic; IC50 [31]: 13.5 µM; IC50 [32]: 3.7 µM; Activity [29]: Non-toxic; IC50 [35]: 2.4 µM |
